Measurements reported in PubChem BioAssay AID2060897 (Molecular Pharmacology Branch, DTP, NCI, 2025).
Values belong to the compound of their own block, whether it stands above or below them.

System: 966289-007-R4-J1-PDC complex spheroid viability
Assay: Anticancer human tumor 966289-007-R4-J1-PDC patient-derived pancreatic adenocarcinoma cell line growth inhibition [RAS]
Settings: for IC50: curve of first compound; for viability, T/C: stronger effect = lower value
Description: RAS pathway inhibitors in Combinations in Complex Spheroids
A high-throughput screen of multi-cell type tumor spheroids was designed to identify active combinations of RAS pathway inhibitors and targeted small molecules. Complex spheroids include a stromal component modeled by human endothelial cells (HUVEC) and fibroblasts modeled by human mesenchymal stem cells (MSCs). The concentration ranges selected for each drug and investigational agent were based upon clinically achievable concentrations if the clinical Cmax of the agent was known.
Compounds. The drugs and investigational agents: abemaciclib (NSC768073), cobimetinib (NSC768068), divarasib (GDC6063, NSC841802), docetaxel (NSC628503), GDC-1971 (RLY-1971, NSC841576), gemcitabine (NSC613327), inavolisib (NSC800729), ipatasertib (NSC767898), KB-0742 (NSC834161), MRTX-1133 (NSC836407), osimertinib (NSC779217), RMC-4630 (NSC839698), RMC-6236 (NSC851965), RMC-6291 (NSC852671), Ro-3306 (NSC812927), sapanisertib (NSC764658), SN-38 (NSC673596), staurosporine (NSC755774), SY5609 (NSC837396), and tovorafenib (DAY101, NSC766906), were obtained from the National Cancer Institute (NCI) Developmental Therapeutics Program Chemical Repository. The FDA-approved anticancer drug set is available from the NCI Developmental Therapeutics Program. […] The stock solutions were prepared in dimethyl sulfoxide (DMSO, Sigma-Aldrich, St. Louis, MO, cat. D2650) at 800-fold the tested concentration and stored at -70 degrees C prior to their use. All drugs and investigational agents were tested over a range starting from a high concentration at or near the clinical Cmax and decreasing in half-log increments. If the clinical Cmax for an agent had not been determined, the highest concentration tested was 10 microM.
Cell Culture. All cells were maintained in an incubator at 37 degrees C and 5% CO2 with 95% humidity. The PDC lines were cultured according to standard operating procedures established by the NCI PDMR. All PDCs were thawed and cultured in Matrigel-coated flasks prepared with a working solution of 1X Ham's F-12 nutrient mix, without supplementation (Invitrogen, Waltham, MA, cat. 11765054), 100 U/mL penicillin-streptomycin (Invitrogen, cat. 15140122), and 2.5% Matrigel (Corning Inc., Corning, NY, cat. 354248) for the first three passages. The 362531-283-R-J2-PDC and 782815-120-R-J1-PDC lines were cultured in 6C/Colon 1B media, which includes advanced DMEM/F-12 (Thermo Fisher Scientific, cat. 12634028), 10 mM HEPES (Thermo Fisher Scientific, cat. 15630080), 1X GlutaMAX supplement (Thermo Fisher Scientific, cat. 35050061), 0.1 mg/mL primocin (InvivoGen, San Diego, CA, cat. ant-pm-2), 10% defined fetal bovine serum, heat inactivated (HyClone Laboratories Inc., Logan, UT, cat. SH30070.03HI), 50% L-WRN conditioned media (ATCC, cat. CRL-3276), 1.25 mM N-Acetyl-L-cysteine (Sigma-Aldrich, cat. A9165), 10 mM nicotinamide (Sigma-Aldrich, cat. N0636), 1X B-27 supplement (Thermo Fisher Scientific, cat. 17504044), 1X N-2 supplement (Thermo Fisher Scientific, cat. 17502048), 50 ng/mL human EGF (Thermo Fisher Scientific, cat. PHG0311), and 10 microM Y-27632 dihydrochloride (Tocris Bioscience, cat. 1254). The K12877-001-R-J1-PDC line was cultured in 6I media, which includes all 6C/Colon 1B media plus 10 ng/mL human FGF-10 (PeproTech, cat. 100-26), 1 ng/mL human FGF-2 (PeproTech, cat. 100-18B), 1 µM prostaglandin E2 (Tocris Bioscience, cat. 2296), […] hydrocortisone (Sigma-Aldrich, cat. H4001), and […] bovine insulin (Sigma-Aldrich, cat. I6634). The K86415-001-R-J1-PDC line was cultured in 6D media, which includes all 6C/Colon 1B media components minus the L-WRN conditioned media. The 485176-168-R4-J1-PDC was cultured in PANC media, which includes all 6C/Colon 1B media plus 100 ng/mL human FGF-10 (PeproTech, cat. 100-26), 500 nM SB-431542 (Selleckchem, cat. S1067), and 10 nM gastrin (Tocris Bioscience, cat. 3006). […]

[1] = second compound 0.0316 µM, first compound 0.0316 µM
[2] = second compound 0.0316 µM, first compound 0.1 µM
[3] = second compound 0.0316 µM, first compound 0.316 µM
[4] = second compound 0.0316 µM, first compound 1 µM
[5] = second compound 0.1 µM, first compound 0.0316 µM
[6] = second compound 0.1 µM, first compound 0.1 µM
[7] = second compound 0.1 µM, first compound 0.316 µM
[8] = second compound 0.1 µM, first compound 1 µM
[9] = second compound 0.316 µM, first compound 0.0316 µM
[10] = second compound 0.316 µM, first compound 0.1 µM
[11] = second compound 0.316 µM, first compound 0.316 µM
[12] = second compound 0.316 µM, first compound 1 µM
[13] = second compound 1 µM, first compound 0.0316 µM
[14] = second compound 1 µM, first compound 0.1 µM
[15] = second compound 1 µM, first compound 0.316 µM
[16] = second compound 1 µM, first compound 1 µM
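Also: spheroids exposed to agents for one week before readout.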
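For viability, T/C in this document: percent viability relative to DMSO vehicle control wells as 100%.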

IC50 (second compound 0.0316 µM): > 1000 nM
IC50 (second compound 0.1 µM): > 1000 nM
IC50 (second compound 0.316 µM): > 1000 nM
IC50 (second compound 1 µM): > 1000 nM
IC50 (second compound 3.16 µM): > 1000 nM
IC50 (second compound 10 µM): > 1000 nM
SMILES: CCN1CCN(Cc2ccc(Nc3ncc(F)c(-c4cc(F)c5nc(C)n(C(C)C)c5c4)n3)nc2)CC1 + C#Cc1c(F)ccc2cc(O)cc(-c3ncc4c(N5CC6CCC(C5)N6)nc(OCC56CCCN5CC(F)C6)nc4c3F)c12
viability, T/C (second compound 0.0316 µM, first compound 0.00316 µM): 121%
viability, T/C (second compound 0.0316 µM, first compound 0.01 µM): 102%
viability, T/C [1]: 107%
viability, T/C [2]: 92.8%
viability, T/C [3]: 92.1%
viability, T/C [4]: 71.8%
viability, T/C (second compound 0.1 µM, first compound 0.00316 µM): 113%
viability, T/C (second compound 0.1 µM, first compound 0.01 µM): 108%
viability, T/C [5]: 102%
viability, T/C [6]: 82.7%
viability, T/C [7]: 92.8%
viability, T/C [8]: 71.1%
viability, T/C (second compound 0.316 µM, first compound 0.00316 µM): 114%
viability, T/C (second compound 0.316 µM, first compound 0.01 µM): 112%
viability, T/C [9]: 100%
viability, T/C [10]: 95.9%
viability, T/C [11]: 84.6%
viability, T/C [12]: 69.9%
viability, T/C (second compound 1 µM, first compound 0.00316 µM): 104%
viability, T/C (second compound 1 µM, first compound 0.01 µM): 103%
viability, T/C [13]: 116%
viability, T/C [14]: 103%
viability, T/C [15]: 79.4%
viability, T/C [16]: 81.7%
viability, T/C (second compound 3.16 µM, first compound 0.00316 µM): 108%
viability, T/C (second compound 3.16 µM, first compound 0.01 µM): 109%
viability, T/C (second compound 3.16 µM, first compound 0.0316 µM): 113%
viability, T/C (second compound 3.16 µM, first compound 0.1 µM): 93.3%
viability, T/C (second compound 3.16 µM, first compound 0.316 µM): 88.8%
viability, T/C (second compound 3.16 µM, first compound 1 µM): 77%
viability, T/C (second compound 10 µM, first compound 0.00316 µM): 108%
viability, T/C (second compound 10 µM, first compound 0.01 µM): 90.3%
viability, T/C (second compound 10 µM, first compound 0.0316 µM): 121%
viability, T/C (second compound 10 µM, first compound 0.1 µM): 89.2%
viability, T/C (second compound 10 µM, first compound 0.316 µM): 93.4%
viability, T/C (second compound 10 µM, first compound 1 µM): 66%

IC50 (second compound 0.00316 µM): 133 nM
IC50 (second compound 0.01 µM): 151 nM
IC50 (second compound 0.0316 µM): 171 nM
IC50 (second compound 0.1 µM): 156 nM
IC50 (second compound 0.316 µM): 154 nM
IC50 (second compound 1 µM): 125 nM
SMILES: CC1(O)CCCC1n1c(=O)c(C(F)F)cc2cnc(NC3CCN(S(C)(=O)=O)CC3)nc21 (centres undefined) + C=CC(=O)N1CCN(c2nc(OCC3CCCN3C)nc3c(F)c(-c4nc(N)cc(C)c4C(F)(F)F)c(Cl)cc23)C(C)C1
viability, T/C (second compound 0.00316 µM, first compound 0.0316 µM): 130%
viability, T/C (second compound 0.00316 µM, first compound 0.1 µM): 56.8%
viability, T/C (second compound 0.00316 µM, first compound 0.316 µM): 25%
viability, T/C (second compound 0.00316 µM, first compound 1 µM): 27%
viability, T/C (second compound 0.00316 µM, first compound 3.16 µM): 29.8%
viability, T/C (second compound 0.00316 µM, first compound 10 µM): 3.73%
viability, T/C (second compound 0.01 µM, first compound 0.0316 µM): 138%
viability, T/C (second compound 0.01 µM, first compound 0.1 µM): 66.5%
viability, T/C (second compound 0.01 µM, first compound 0.316 µM): 21.4%
viability, T/C (second compound 0.01 µM, first compound 1 µM): 28.2%
viability, T/C (second compound 0.01 µM, first compound 3.16 µM): 26.4%
viability, T/C (second compound 0.01 µM, first compound 10 µM): 3.99%
viability, T/C [1]: 129%
viability, T/C [2]: 66.3%
viability, T/C [3]: 26.9%
viability, T/C [4]: 24.9%
viability, T/C (second compound 0.0316 µM, first compound 3.16 µM): 26.2%
viability, T/C (second compound 0.0316 µM, first compound 10 µM): 3.83%
viability, T/C [5]: 121%
viability, T/C [6]: 60%
viability, T/C [7]: 28.8%
viability, T/C [8]: 27.8%
viability, T/C (second compound 0.1 µM, first compound 3.16 µM): 27.9%
viability, T/C (second compound 0.1 µM, first compound 10 µM): 3.1%
viability, T/C [9]: 117%
viability, T/C [10]: 61.9%
viability, T/C [11]: 25.1%
viability, T/C [12]: 27.7%
viability, T/C (second compound 0.316 µM, first compound 3.16 µM): 23.1%
viability, T/C (second compound 0.316 µM, first compound 10 µM): 3.69%
viability, T/C [13]: 123%
viability, T/C [14]: 56.8%
viability, T/C [15]: 21.2%
viability, T/C [16]: 24%
viability, T/C (second compound 1 µM, first compound 3.16 µM): 22.8%
viability, T/C (second compound 1 µM, first compound 10 µM): 3.51%
